{"source": "patent US20230000835A1", "about": "“LYSINE-SPECIFIC HISTONE DEMETHYLASE INHIBITORS FOR THE TREATMENT OF MYELOPROLIFERATIVE NEOPLASMS” (Imago Biosciences, Inc., priority 2019, published 2023)", "key": {"[1]": {"test_system": "patients with high-risk MF", "assay": "Clinical studies in myelofibrosis: safety and tolerability (adverse events)", "type": "in vivo", "protocol": "A multi-center, open-label study evaluating the safety, tolerability, steady-state pharmacokinetics and pharmacodynamics of Compound 1 administered orally once daily in patients with high-risk MF, including primary myelofibrosis (PMF), post-polycythemia vera myelofibrosis (PPV-MF), and post-essential thrombocythemia myelofibrosis (PET-MF) (collectively referred to as ‘MF’) was initiated as a Phase 1/2A study, and was expanded to a Phase 2b study.\nThis study was conducted at multiple sites. Up to 50 patients, eighteen years of age or older, with high-risk myelofibrosis were treated. The primary objectives included safety and tolerability, pharmacokinetics (PK; Phase 1/2A only) and spleen volume reduction (SVR). […] Key inclusion criteria included: high- or intermediate-2 risk myelofibrosis; per the Investigator's judgment have failed (refractory or resistant to, inadequately controlled by or intolerant of), or are not a candidate for, available approved therapy including ruxolitinib; platelet count ≥100K/μL; and, circulating blasts ≤10%.\nSafety. […] Four SAEs attributed to Compound 1 (all Grade 3), including painful splenomegaly, headache, nausea and vomiting, and heart failure. There were 139 AEs of all grades attributed to Compound 1. The most common AEs across the 31 subjects from both of the above studies were thrombocytopenia (11 subjects, 35%), anemia (3 subjects, 10%) and nausea (1, 3%). The most common grade 3/4 AEs attributed to Compound 1 were Anemia (6 subjects, 19%) and neutropenia (3 subjects, 10%)."}, "[2]": {"test_system": "patients with myelofibrosis", "assay": "Phase 2b clinical study in myelofibrosis: spleen volume at week 12", "type": "in vivo, human", "protocol": "A multi-center, open label, dose-range finding study to assess the safety, optimally effective dosing rules, steady-state pharmacokinetics and pharmacodynamics of Compound 1 orally once daily in patients with myelofibrosis was conducted in a Phase 1/2a study. • Primary objectives were to evaluate, in MF patients the effect of Compound 1 on: Safety and tolerability • Pharmacokinetics (Phase 1/2a only) • Reduction in spleen volume\nThis study initiated as a Phase 1/2a study assessing the safety of the starting dose, an 85 day duration of treatment, and the pharmacokinetic and pharmacodynamic effects of Compound 1, with transition to a Phase 2b study incorporating changes supported by the earlier pharmacokinetic and pharmacodynamic studies and safety assessments. This study consisted of two treatment periods: the Initial Treatment Period (ITP), followed by the Additional Treatment Period (ATP). Patients commenced enrolment in the Phase 2b portion of the study, in which the ITP has been extended such that patients were treated daily for 169 days. The ATP, also extended, offered treatment to qualifying patients for an additional 169 days.\nInitial Treatment Period. During the ITP, patients initially returned for study assessments twice weekly for the first week (ITP Days 0, 3 and 7); post-dosing of 3 patients at the new Ds, the DSMC convened to assess the necessity of the Day 3 visit. Patients returned weekly for the next 7 weeks (ITP Days 14, 21, 28, 35, 42, 49 and 56), at least bi-weekly for 8 weeks (ITP Days 70, 84, 98 and 112) and then monthly for 8 weeks (ITP Days 140 and 168). It was anticipated that by Week 8 (Day 56) patients will have achieved a stable dose, with weekly titrations no longer necessary. For the exceptional patient whose dose had not stabilized, weekly visits continued at the PI's discretion (note: bi-weekly visits may also continue post Day 112). On Days 84 and 168, patients underwent abdominal magnetic resonance imaging (MRI), or computerized tomography (CT) if the patient was not a candidate for MRI. On Day 168, bone marrow sampling was also required. […]"}, "[3]": {"assay": "Non-clinical acute toxicity studies", "type": "in vivo", "details": "even at extremely high doses (human equivalent dose ~20-40 mg/kg)"}, "[4]": {"details": "Phase 2b patients at Week 12, n=14"}}, "note": "Where a name gives a salt, the structure may show the parent alone."}
{"smiles": "CN1CCN(C(=O)[C@H](CCCN[C@@H]2C[C@H]2c2ccc(F)cc2)NC(=O)c2ccc(-n3ccnn3)cc2)CC1", "note": "[Compound 1, N-[(2S)-5-{[(1R, 2S)-2-(4-fluorophenyl)cyclopropyl]amino}-1-(4-methylpiperazin-1-yl)-1-oxopentan-2-yl]-4-(1H-1,2,3-triazol-1-yl)benzamide, bis-tosylate salt]", "values": [{"measurement": "subjects with anemia (most common AEs)", "setting": "[1]; 31 subjects", "result": 10, "unit": "%"}, {"measurement": "subjects with grade 3/4 Anemia attributed to the drug", "setting": "[1]; 31 subjects", "result": 19, "unit": "%"}, {"measurement": "subjects with grade 3/4 neutropenia attributed to the drug", "setting": "[1]; 31 subjects", "result": 10, "unit": "%"}, {"measurement": "subjects with nausea (most common AEs)", "setting": "[1]; 31 subjects", "result": 3, "unit": "%"}, {"measurement": "subjects with thrombocytopenia (most common AEs)", "setting": "[1]; 31 subjects", "result": 35, "unit": "%"}, {"measurement": "tolerability", "setting": "[1]; heterogeneous population of patients with MF", "result": "well tolerated"}, {"measurement": "number of AEs of all grades attributed to the drug", "setting": "[1]; human, in vivo", "result": 139}, {"measurement": "number of SAEs attributed to the drug (all Grade 3)", "setting": "[1]; painful splenomegaly, headache, nausea and vomiting, heart failure", "result": "Four"}, {"measurement": "patients with a reduction of spleen volume of ≥20%", "setting": "[2]; [4]", "result": 29, "unit": "%"}, {"measurement": "patients with a reduction of spleen volume of ≥35%", "setting": "[2]; [4]", "result": 14, "unit": "%"}, {"measurement": "median change of spleen volume to Wk 12", "setting": "[2]; Phase 2b patients, n=14", "result": "−15", "unit": "%"}, {"measurement": "acute toxicity in non-clinical studies", "setting": "[3]", "result": "no evidence in non-clinical studies of acute toxicity"}]}
